Here are results for 25 compounds from ChEMBL document CHEMBL1154965, “3-(Arylsulfonyl)-1-(azacyclyl)-1H-indoles are 5-HT(6) receptor modulators” (Bioorg Med Chem Lett, 2010).

As a reminder, the Ki is a dissociation constant, usually derived from enzyme kinetics or from competition with a known ligand. As a reminder, the EC50 is the concentration at which the effect is half-maximal. Usually Emax stands for the greatest response seen or fitted, relative to the assay's reference. The term IC50 denotes the midpoint of a concentration-inhibition curve.

In experiment [1] the target is T1, 5-hydroxytryptamine receptor 6 (Homo sapiens, UniProt P50406). Nature of the experiment: Displacement of [3H]LSD from human 5-HT6 receptor expressed in human HeLa cells after 2 hrs. The format is cell-based.
In experiment [2] the target is T1, 5-hydroxytryptamine receptor 6. Description: Agonist activity at human 5-HT6 receptor expressed in human HeLa cells assessed as effect on 5HT-induced intracellular cAMP level after 10 mins by radioimmunoassay. Format: functional, cell-based.
Experiment [3] has the same target. Nature of the experiment: Agonist activity at human 5-HT6 receptor expressed in human HeLa cells assessed as effect on 5HT-induced intracellular cAMP level after 10 mins by radioimmunoassay relative to serotonin. Format: functional, cell-based. Background: Cyclic AMP is a second messenger, typically raised through Gs and lowered through Gi signalling.
The target is the same in experiment [4]. Description: Antagonist activity at human 5-HT6 receptor expressed in human HeLa cells assessed as inhibition of 5HT-induced intracellular cAMP level after 10 mins by radioimmunoassay. The format is functional, cell-based.
Experiment [5] has the same target. Description: Antagonist activity at human 5-HT6 receptor expressed in human HeLa cells assessed as inhibition of 5HT-induced intracellular cAMP level after 10 mins by radioimmunoassay relative to serotonin. Format: functional, cell-based.

T1 sequence (P50406 whole entry): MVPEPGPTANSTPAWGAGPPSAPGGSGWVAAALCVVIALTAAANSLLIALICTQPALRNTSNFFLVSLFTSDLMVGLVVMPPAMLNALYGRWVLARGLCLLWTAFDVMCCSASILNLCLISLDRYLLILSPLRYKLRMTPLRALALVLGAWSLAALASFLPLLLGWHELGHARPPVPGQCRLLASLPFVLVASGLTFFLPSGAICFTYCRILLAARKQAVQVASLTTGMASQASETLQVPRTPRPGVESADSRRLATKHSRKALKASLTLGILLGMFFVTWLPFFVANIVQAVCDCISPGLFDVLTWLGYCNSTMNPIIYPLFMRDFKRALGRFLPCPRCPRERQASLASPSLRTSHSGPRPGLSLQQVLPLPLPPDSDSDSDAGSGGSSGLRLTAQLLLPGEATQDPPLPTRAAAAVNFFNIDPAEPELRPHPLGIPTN

In turn, `O=S(=O)(c1cn(C2CCCNC2)c2ccccc12)c1cccc2cccnc12` (stereo not drawn) came in with a Ki in experiment [1] of 5.6 nM. Also, in experiment [2], the EC50 was 592 nM. Moreover, the Emax in experiment [3] turned out to be 71%.

For the compound `O=S(=O)(c1cccc(F)c1)c1cn(C2CCNC2)c2ccccc12` (stereo not drawn), affinity in experiment [1] was put at a Ki of 4.7 nM. Also, the EC50 in experiment [2] came to 68 nM. Besides, the maximal effect (Emax) in experiment [3] was 38%.

For `CN1CCC(n2cc(S(=O)(=O)c3cccc4cccnc34)c3ccccc32)C1` (stereo not drawn), in experiment [1], the affinity, expressed as Ki, was 2.8 nM. For the same compound, the IC50 in experiment [4] was determined as 76 nM. In addition, the Imax in experiment [5] is 97%.

As to `CN1CCCC(n2cc(S(=O)(=O)c3cccc4ccccc34)c3ccccc32)C1` (stereo not drawn), the Ki in experiment [1] worked out at 7.1 nM. Also, the IC50 in experiment [4] worked out at 107 nM. In experiment [5], the Imax came to 87%.

Turning to `O=S(=O)(c1cccc(F)c1)c1cn(C2CCNC2)c2cc(F)ccc12` (stereo not drawn), the affinity in experiment [1] corresponds to a Ki of 18 nM.

For the compound `O=S(=O)(c1ccccc1)c1cn(C2CCCNC2)c2ccccc12` (stereo not drawn), the EC50 in experiment [2] was 82 nM. Besides, the Emax in experiment [3] is 99%.

`CN1CCC(n2cc(S(=O)(=O)c3cccc(Cl)c3)c3ccccc32)C1` (stereo not drawn): the inhibition constant (Ki) in experiment [1] came to 1.3 nM. In experiment [4], the IC50 came out at 17 nM. Besides, in experiment [5], the Imax worked out at 86%.

Regarding `O=S(=O)(c1cccc(F)c1)c1cn(C2CCCNC2)c2ccc(F)cc12` (stereo not drawn), the IC50 in experiment [4] is 18 nM. Moreover, the Imax in experiment [5] came to 85%.

On to `O=S(=O)(c1ccccc1)c1cn(C2CCNC2)c2ccccc12` (stereo not drawn), for which the Ki in experiment [1] was 5 nM. For the same compound, the concentration for a half-maximal effect (EC50) in experiment [2] amounted to 60 nM. Moreover, the maximal effect (Emax) in experiment [3] amounted to 70%.

For the compound `O=S(=O)(c1cn(C2CCNC2)c2ccccc12)c1cccc2cccnc12` (stereo not drawn), in experiment [1], the affinity, expressed as Ki, was 1.5 nM. Moreover, the IC50 in experiment [4] was 82 nM. The Imax in experiment [5] worked out at 64%.

Consider `COc1ccc2c(S(=O)(=O)c3cccc(Cl)c3)cn(C3CCNC3)c2c1` (stereo not drawn), for which the affinity in experiment [1] corresponds to a Ki of 4.6 nM. Also, the IC50 in experiment [4] is 80 nM. Moreover, the Imax in experiment [5] stood at 100%.

In experiment [1], `O=S(=O)(c1ccccc1)c1cn(C2CCN(Cc3ccccc3)C2)c2ccccc12` (stereo not drawn) showed an inhibition constant (Ki) of 113 nM.

As for `O=S(=O)(c1cccc(F)c1)c1cn(C2CCNC2)c2ccc(Cl)cc12` (stereo not drawn), the Ki in experiment [1] is 15 nM.

`CCN1CCCC(n2cc(S(=O)(=O)c3cccc(F)c3)c3cc(OC)ccc32)C1` (stereo not drawn) showed an inhibitory constant (Ki) in experiment [1] of 16 nM. Besides, the concentration giving a half-maximal response (EC50) in experiment [2] was found to be 203 nM. The maximal effect (Emax) in experiment [3] was found to be 50%.

In turn, `O=S(=O)(c1cccc2ccccc12)c1cn(C2CCNC2)c2ccccc12` (stereo not drawn) registered an inhibition constant Ki in experiment [1] of 23.3 nM. Also, the IC50 in experiment [4] is 107 nM. The Imax in experiment [5] was found to be 100%.

As to `O=S(=O)(c1cccc(F)c1)c1cn(C2CCNC2)c2cccc(F)c12` (stereo not drawn), affinity in experiment [1] was put at a Ki of 18 nM.

In experiment [1], `O=S(=O)(c1cccc(Cl)c1)c1cn(C2CCNC2)c2ccccc12` (stereo not drawn) yielded an inhibitory constant (Ki) of 3.2 nM. The concentration giving a half-maximal response (EC50) in experiment [2] is 125 nM. In experiment [3], the maximal response (Emax) stood at 48%.

`O=S(=O)(c1cccc(F)c1)c1cn(C2CCNC2)c2cc(Cl)ccc12` (stereo not drawn): the affinity in experiment [1] corresponds to a Ki of 72 nM.

`O=S(=O)(c1cccc(F)c1)c1cn(C2CCCNC2)c2ccccc12` (stereo not drawn) displayed a Ki in experiment [1] of 6 nM. Further, the EC50 in experiment [2] is 56 nM. For the same compound, the Emax in experiment [3] amounted to 78%.

For `CN1CCC(n2cc(S(=O)(=O)c3cccc4ccccc34)c3ccccc32)C1` (stereo not drawn), the inhibitory constant (Ki) in experiment [1] came to 6 nM. Also, in experiment [4], the half-inhibitory concentration (IC50) worked out at 60 nM. Also, the Imax in experiment [5] turned out to be 98%.

`COc1ccc2c(c1)c(S(=O)(=O)c1cccc(F)c1)cn2C1CCCNC1` (stereo not drawn) registered a Ki in experiment [1] of 10.7 nM. Further, in experiment [2], the EC50 was determined as 73 nM. Besides, the Emax in experiment [3] is 75%.

Regarding `CN1CCC(n2cc(S(=O)(=O)c3cccc(F)c3)c3ccccc32)C1` (stereo not drawn), the affinity in experiment [1], expressed as Ki, was 3.5 nM. Also, the EC50 in experiment [2] amounted to 398 nM. Moreover, in experiment [3], the Emax was 49%.

In turn, `CCN1CCCC(n2cc(S(=O)(=O)c3ccccc3)c3ccccc32)C1` (stereo not drawn) displayed a Ki in experiment [1] of 7.3 nM. Also, the EC50 in experiment [2] turned out to be 31 nM. Further, the maximal effect (Emax) in experiment [3] was determined as 52%.

The compound `CN1CCC(n2cc(S(=O)(=O)c3cccc(F)c3)c3cc(F)ccc32)C1` (stereo not drawn) showed a Ki in experiment [1] of 5 nM. For the same compound, the IC50 in experiment [4] worked out at 94 nM. In addition, the Imax in experiment [5] came out at 70%.

In experiment [1], `O=S(=O)(c1cccc(F)c1)c1cn(C2CCNC2)c2ccc(F)cc12` (stereo not drawn) showed a Ki of 9.6 nM. The EC50 in experiment [2] came out at 38 nM. The maximum response (Emax) in experiment [3] turned out to be 50%.
